Test results taken from article PMC10023787, “Trio-pharmacophore DNA-encoded chemical library for simultaneous selection of fragments and linkers” (Nature Communications, 2023).
“Also recorded” adds a separate entry of the source. Where two headings read alike, the source gives them in different places.

Columns and labels:
MMP-2 = molecular target: T1, MMP-2 (Homo sapiens, UniProt P08253); test: De novo T-DEL selection against MMP-2, NGS decoding; format: binding; conditions: for MMP2 SL-A Count: NGS sequence count of sub-library SL-A building block; for MMP2 SL-A Enrichment Fold: sub-library SL-A building block
T1 construct: purchased Sino Biological 10082-HNAH
T1 sequence (P08253 110-660): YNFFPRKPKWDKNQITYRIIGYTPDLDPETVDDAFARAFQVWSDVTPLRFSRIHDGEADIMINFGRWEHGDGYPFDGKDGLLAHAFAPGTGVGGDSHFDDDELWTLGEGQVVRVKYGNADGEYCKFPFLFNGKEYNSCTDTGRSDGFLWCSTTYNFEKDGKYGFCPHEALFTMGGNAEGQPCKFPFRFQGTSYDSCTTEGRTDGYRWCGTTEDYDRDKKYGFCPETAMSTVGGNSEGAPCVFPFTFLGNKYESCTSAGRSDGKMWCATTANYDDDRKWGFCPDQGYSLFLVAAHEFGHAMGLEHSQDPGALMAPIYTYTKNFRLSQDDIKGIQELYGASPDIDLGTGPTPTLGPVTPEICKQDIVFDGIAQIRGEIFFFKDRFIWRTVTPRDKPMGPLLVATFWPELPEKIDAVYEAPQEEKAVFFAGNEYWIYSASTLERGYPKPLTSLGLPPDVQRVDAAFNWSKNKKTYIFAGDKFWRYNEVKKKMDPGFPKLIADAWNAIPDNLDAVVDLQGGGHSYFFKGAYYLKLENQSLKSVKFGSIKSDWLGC
Excerpt: Matrix metalloproteinases (MMPs) are zinc-dependent endopeptidases capable of degrading and remodeling extracellular matrix components[46],[47]. They are attractive therapeutic targets as high expression levels were detected in various diseases, such as inflammatory diseases, and at different stages of cancers, including metastasis, invasion, and angiogenesis[47]–[53]. As shown in Supplementary Fig. 3c, we performed selections against the two gelatinases (human MMP-2 and human MMP-9) to identify binding fragments for later design and synthesis of small molecule inhibitors. After selection, the three sub-libraries were decoded, and the enrichment was calculated by dividing the post-selection fraction (count/total counts) by the pre-selection fraction (Fig. 4a and Supplementary Fig. 13).
4 µg of MMP-2/MMP-9 was dissolved in 100 µl of selection buffer containing 25 mM Tris-base, 10 mM CaCl2, 150 mM NaCl, 0.05% Tween 20, pH 7.5. 10 µl of 4-Aminophenylmercuric acetate (APMA) (100 mM) solution was added to the protein solution and incubated at 37 °C for 1 h. After activation, the solution was added on top of 40 µl pre-washed Ni-NTA resin and incubated for 30 min on a rotary shaker. The supernatant was discarded, and the resin was washed three times with the selection buffer.
For each independent selection, three sub-libraries were mixed in the selection buffer with a final concentration of 40 nM of each sub-library in 100 µl. The mixture was heat denatured at 90 °C for 1 min and slowly cooled down to allow the formation of the trio-pharmacophore library. The dynamic dual-pharmacophore DEL was provided by DyNAbind GmbH (Merck, DYNA001).
The assembled library was incubated with the protein-bound solid support for 2 h at RT on a rotary shaker. In parallel, selection on bare solid support served as the negative control to exclude promiscuous binders on the resin. After panning, the supernatant was discarded, and the resin was washed three times with 1 ml selection buffer. Finally, 100 µl of 50 mM Tris buffer, pH 7.4 was added to resuspend the resin and the resin was incubated at 95 °C for 5 min to denature the protein, release, and collect the bound library members.
The eluted library members were subjected to sample preparation for NGS. NGS preparation was achieved by two-step PCR. First, the individual selection was indexed using primers containing unique sequences corresponding to each selection. The amplified product was purified from 2% agarose gel. Second, the purified DNA from all selections were pooled in equal amount and subjected to the 2nd PCR step to attach sequences compatible with the NGS flow cell and the sequencing primers. NGS was performed by Novogene UK with Novaseq 6000. Raw data files (fastq files) obtained were decoded using a custom python script and excel. The sequence reads corresponding to each sample was retrieved by searching for the correct index unique to each selection. Then, the code region was extracted from each sequence and assigned to the corresponding identity. The count of each code in each selection sample was obtained by looping through the total reads and counting the occurrence of each code. The enrichment fold of each compound was calculated by first, dividing the count by the total count to get the abundance, second, the abundance after the selection was divided by the abundance of pre-selection to reflect the distribution change of the compound. Next, the enrichment fold was plotted against the count for each member of the library to give the scatter plots as in Fig. 4.

MMP-9 = molecular target: T2, MMP-9 (Homo sapiens, UniProt P14780); test: MMP-9 inhibition assay (fluorogenic peptide substrate); format: biochemical; conditions: for inhibitory effect: in words
T2 construct: purchased Sino Biological 10327-HNAH
T2 sequence (P14780 107-707 limits assumed): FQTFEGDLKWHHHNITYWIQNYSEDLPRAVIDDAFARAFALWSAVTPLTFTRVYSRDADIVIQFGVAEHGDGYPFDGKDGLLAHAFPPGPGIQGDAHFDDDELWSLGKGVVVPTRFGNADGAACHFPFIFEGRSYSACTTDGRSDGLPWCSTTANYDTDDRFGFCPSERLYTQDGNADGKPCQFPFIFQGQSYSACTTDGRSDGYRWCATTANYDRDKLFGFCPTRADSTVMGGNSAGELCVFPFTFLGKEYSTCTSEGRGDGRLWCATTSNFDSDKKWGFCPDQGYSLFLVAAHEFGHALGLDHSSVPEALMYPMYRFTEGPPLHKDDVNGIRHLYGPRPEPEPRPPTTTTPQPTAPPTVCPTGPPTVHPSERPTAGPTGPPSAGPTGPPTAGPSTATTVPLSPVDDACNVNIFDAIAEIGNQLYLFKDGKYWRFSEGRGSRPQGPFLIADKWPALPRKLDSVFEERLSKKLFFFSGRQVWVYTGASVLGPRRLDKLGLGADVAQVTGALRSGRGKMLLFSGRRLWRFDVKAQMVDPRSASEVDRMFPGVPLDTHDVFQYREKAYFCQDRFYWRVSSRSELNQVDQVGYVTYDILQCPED
Outline: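 Human proMMP-2 and proMMP-9 were activated with 1 mM APMA (37 °C, 2 h), then used at 6.5 nM (MMP-2) or 10 nM (MMP-9) in Tris/NaCl/CaCl2/Brij 35 buffer, pH 7.5. Enzyme was preincubated with compound 30 min at RT; 25 μM DNP-Pro-Leu-Gly-Met-Trp-Ser-Arg substrate was added and fluorescence (ex 280/em 360 nm) followed 30 min. IC50 from logistic fits of Vmax.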

[1] = de novo T-DEL selection against MMP-2
[2] = MMP-9, concentration 1.95 µM, read-out: Mean (MMP-9 dose-response, Supplementary fig 15)

## Cn1c(O)nc2cc(C(=O)O)cnc21 [Compound 826]
MMP-2; [1]
  MMP2 SL-A Count: 1212
  MMP2 SL-A Enrichment Fold: 1.562
MMP-2; enrichment fold of sub-library SL-C member, MMP-2 selection, Figure 4a source data
  MMP2 SL-C Enrichment Fold: 2.518
MMP-2; sequence count of sub-library SL-C member, MMP-2 selection, Figure 4a source data
  MMP2 SL-C Count: 5893
MMP-9; Figure 5b, fragment concentration 0.12207 µM, read-out: Normalized activity (Mean)
  remaining activity at 0.12207 µM: 95.1%
MMP-9; Figure 5b, fragment concentration 0.488281 µM, read-out: Normalized activity (Mean)
  remaining activity at 0.488281 µM: 93.3%
MMP-9; Figure 5b, fragment concentration 1.95312 µM, read-out: Normalized activity (Mean)
  remaining activity at 1.95312 µM: 97.2%
MMP-9; Figure 5b, fragment concentration 7.8125 µM, read-out: Normalized activity (Mean)
  remaining activity at 7.8125 µM: 99.6%
MMP-9; Figure 5b, fragment concentration 31.25 µM, read-out: Normalized activity (Mean)
  remaining activity at 31.25 µM: 92%
MMP-9; Figure 5b, fragment concentration 125 µM, read-out: Normalized activity (Mean)
  remaining activity at 125 µM: 94.2%
MMP-9; Figure 5b, fragment concentration 500 µM, read-out: Normalized activity (Mean)
  remaining activity at 500 µM: 83%
MMP-9; MMP-9, concentration 0.12 µM, read-out: Mean (MMP-9, Supplementary fig 16)
  remaining activity at 0.12 µM: 95.1%
MMP-9; MMP-9, concentration 0.49 µM, read-out: Mean (MMP-9, Supplementary fig 16)
  remaining activity at 0.49 µM: 93.3%
MMP-9; MMP-9, concentration 1.95 µM, read-out: Mean (MMP-9, Supplementary fig 16)
  remaining activity at 1.95 µM: 97.2%
MMP-9; MMP-9, concentration 7.81 µM, read-out: Mean (MMP-9, Supplementary fig 16)
  remaining activity at 7.81 µM: 99.6%
MMP-9; MMP-9, concentration 31.25 µM, read-out: Mean (MMP-9, Supplementary fig 16)
  remaining activity at 31.25 µM: 92%
MMP-9; MMP-9, concentration 125.00 µM, read-out: Mean (MMP-9, Supplementary fig 16)
  remaining activity at 125 µM: 94.2%
MMP-9; MMP-9, concentration 500.00 µM, read-out: Mean (MMP-9, Supplementary fig 16)
  remaining activity at 500 µM: 83%
MMP-9; MMP-9, concentration 0.12 µM, read-out: Mean (MMP-9 dose-response, Supplementary fig 15)
  remaining activity at 0.12 µM: 95.1%
MMP-9; MMP-9, concentration 0.12 µM, read-out: Mean (dose-response, Supplementary fig 17)
  remaining activity at 0.12 µM: 82.6%
MMP-9; MMP-9, concentration 0.49 µM, read-out: Mean (MMP-9 dose-response, Supplementary fig 15)
  remaining activity at 0.49 µM: 93.3%
MMP-9; MMP-9, concentration 0.49 µM, read-out: Mean (dose-response, Supplementary fig 17)
  remaining activity at 0.49 µM: 80.6%
MMP-9; [2]
  remaining activity at 1.95 µM: 97.2%
MMP-9; MMP-9, concentration 1.95 µM, read-out: Mean (dose-response, Supplementary fig 17)
  remaining activity at 1.95 µM: 99.3%
MMP-9; MMP-9, concentration 7.81 µM, read-out: Mean (MMP-9 dose-response, Supplementary fig 15)
  remaining activity at 7.81 µM: 99.6%
MMP-9; MMP-9, concentration 7.81 µM, read-out: Mean (dose-response, Supplementary fig 17)
  remaining activity at 7.81 µM: 88.5%
MMP-9; MMP-9, concentration 31.25 µM, read-out: Mean (MMP-9 dose-response, Supplementary fig 15)
  remaining activity at 31.25 µM: 92%
MMP-9; MMP-9, concentration 31.25 µM, read-out: Mean (dose-response, Supplementary fig 17)
  remaining activity at 31.25 µM: 96.1%
MMP-9; MMP-9, concentration 125.00 µM, read-out: Mean (MMP-9 dose-response, Supplementary fig 15)
  remaining activity at 125 µM: 94.2%
MMP-9; MMP-9, concentration 125.00 µM, read-out: Mean (dose-response, Supplementary fig 17)
  remaining activity at 125 µM: 87.7%
MMP-9; MMP-9, concentration 500.00 µM, read-out: Mean (MMP-9 dose-response, Supplementary fig 15)
  remaining activity at 500 µM: 83%
MMP-9; MMP-9, concentration 500.00 µM, read-out: Mean (dose-response, Supplementary fig 17)
  remaining activity at 500 µM: 84%
MMP-9
  inhibitory effect: No inhibitory effects could be measured; also recorded: did not exhibit meaningful activity

## Cc1cc(=O)[nH]c(-n2nc(C)c(CCC(=O)O)c2C)n1 [Compound 693]
MMP-2; [1]
  MMP2 SL-A Count: 3710
  MMP2 SL-A Enrichment Fold: 2.312
MMP-2; NGS sequence count of sub-library SL-C building block, de novo T-DEL selection against MMP-2
  MMP2 SL-C Count: 1010
MMP-2; sub-library SL-C building block, de novo T-DEL selection against MMP-2
  MMP2 SL-C Enrichment Fold: 1.213
MMP-9; Figure 5b, fragment concentration 0.078016 µM, read-out: Normalized activity (Mean)
  remaining activity at 0.078016 µM: 99.9%
MMP-9; Figure 5b, fragment concentration 0.39008 µM, read-out: Normalized activity (Mean)
  remaining activity at 0.39008 µM: 97%
MMP-9; Figure 5b, fragment concentration 1.9504 µM, read-out: Normalized activity (Mean)
  remaining activity at 1.9504 µM: 89.6%
MMP-9; Figure 5b, fragment concentration 9.752 µM, read-out: Normalized activity (Mean)
  remaining activity at 9.752 µM: 87.1%
MMP-9; Figure 5b, fragment concentration 48.76 µM, read-out: Normalized activity (Mean)
  remaining activity at 48.76 µM: 91%
MMP-9; Figure 5b, fragment concentration 243.8 µM, read-out: Normalized activity (Mean)
  remaining activity at 243.8 µM: 37.1%
MMP-9; Figure 5b, fragment concentration 1219 µM, read-out: Normalized activity (Mean)
  remaining activity at 1219 µM: 6.67%
MMP-9; MMP-9, concentration 0.08 µM, read-out: Mean (MMP-9 dose-response, Supplementary fig 15)
  remaining activity at 0.08 µM: 99.9%
MMP-9; MMP-9, concentration 0.39 µM, read-out: Mean (MMP-9 dose-response, Supplementary fig 15)
  remaining activity at 0.39 µM: 97%
MMP-9; [2]
  remaining activity at 1.95 µM: 89.5%
MMP-9; MMP-9, concentration 9.75 µM, read-out: Mean (MMP-9 dose-response, Supplementary fig 15)
  remaining activity at 9.75 µM: 87.1%
MMP-9; MMP-9, concentration 48.76 µM, read-out: Mean (MMP-9 dose-response, Supplementary fig 15)
  remaining activity at 48.76 µM: 91%
MMP-9; MMP-9, concentration 243.80 µM, read-out: Mean (MMP-9 dose-response, Supplementary fig 15)
  remaining activity at 243.8 µM: 37.1%
MMP-9; MMP-9, concentration 1219.00 µM, read-out: Mean (MMP-9 dose-response, Supplementary fig 15)
  remaining activity at 1219 µM: 6.67%
MMP-9
  inhibitory effect: high µM range
MMP-9; mean ± SE, n.d: not detected, Fig. 5e prints no unit, µM, read-out: IC50
  IC50: 206 ± 25.4 µM
